# Results reported in BindingDB's records for doi:10.7270/Q2736PBV (Broad Institute, 2009).
# Target: T1, Streptokinase A (Streptococcus pyogenes serotype M1, UniProt P10520)
# T1 sequence (P10520 whole entry): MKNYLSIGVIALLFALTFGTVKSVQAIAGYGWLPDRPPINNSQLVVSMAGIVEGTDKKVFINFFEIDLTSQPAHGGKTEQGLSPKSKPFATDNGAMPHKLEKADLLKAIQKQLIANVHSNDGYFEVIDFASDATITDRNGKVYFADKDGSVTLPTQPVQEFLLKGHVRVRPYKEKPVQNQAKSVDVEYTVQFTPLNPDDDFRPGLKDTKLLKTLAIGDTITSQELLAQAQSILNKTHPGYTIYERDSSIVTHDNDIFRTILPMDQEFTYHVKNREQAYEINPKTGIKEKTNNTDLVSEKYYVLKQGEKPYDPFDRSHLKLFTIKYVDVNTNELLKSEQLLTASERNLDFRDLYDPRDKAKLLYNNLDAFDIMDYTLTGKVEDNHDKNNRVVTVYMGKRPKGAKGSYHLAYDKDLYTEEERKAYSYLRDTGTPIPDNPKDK
# Assay: S. pyogenes streptokinase expression inhibitors, potency, dose response, plasminogen activation absorbance, OD405 (AID 1914)
row,Compound,EC50
1,CN1C(=O)/C(=N\NC(=O)c2cc(-c3cccs3)nc3ccccc23)c2ccccc21 [SMR000242891],> 150 µM
2,CN1C(=O)C(=NNc2nc(-c3ccccc3)cs2)c2ccccc21 [SMR000243133],7.09 µM
3,CC(C)c1ccc2c(c1)=C(NNC(=O)c1cccc(S(=O)(=O)N3CCCCC3)c1)C(=O)N=2 [SMR000243307],> 150 µM
4,CC1=C2C(=NC3=C(C(=O)c4ccccc43)C2c2c(C)cc(C)cc2C)N(c2ccccn2)N1 (centres undefined) [SMR000263933],22.2 µM
5,CC(=N)C(C#N)C(=O)COC(=O)c1cc(-c2ccc(Br)cc2)nc2ccccc12 (centres undefined) [SMR000264784],4.43 µM
6,Cc1cc2nc(-n3c(O)c[nH]c3=S)sc2cc1C [SMR000272190],> 150 µM
7,COc1cccc(CN=Nc2cc(C)nc(-c3ccccc3O)n2)c1O [SMR000274167],> 150 µM
8,CCC1C(c2ccccc2)NC(c2ccccc2)C(CC)C1N=O (centres undefined) [SMR000283074],13.3 µM
9,Oc1nc(Nc2ccccn2)sc1Cc1ccc(Cl)cc1 [SMR000288952],> 150 µM
10,Cc1ccccc1CN=Nc1nc2ccccc2[nH]1 [SMR000305031],> 150 µM
11,O=C(O)COc1ccc(CN=Nc2nc(Nc3ccccc3)nc(N3CCCCC3)n2)cc1 [SMR000312685],> 150 µM
12,CN1C(=O)C(=NNC(=S)Nc2ccccc2F)c2cc(S(=O)(=O)N3CCOCC3)ccc21 [SMR000314843],> 150 µM
13,O=C1C(=NNC(=S)Nc2ccccc2F)c2ccccc2N1Cc1ccccc1 [SMR000314861],> 150 µM
14,Cc1cc(C)n(C(=O)C(C#N)N=Nc2cc(Cl)cc(Cl)c2)n1 (centres undefined) [SMR000335596],> 150 µM
15,N#Cc1c(-c2c(Cl)cccc2Cl)noc1CC=Nc1ccc(C(=O)O)cc1 [SMR000337673],> 150 µM
16,CC(N=Nc1nc2ccccc2[nH]1)c1ccc2c(c1)OCO2 (centres undefined) [SMR000354227],> 150 µM
17,O=C(N/N=C/C1C=C(Cl)C=C([N+](=O)[O-])C1=O)c1ccccc1NS(=O)(=O)c1cccs1 (centres undefined) [SMR000364876],> 150 µM

row,Compound,EC50
1,COc1ccc(NC(=S)NNC2=c3ccccc3=NC2=O)cc1 [SMR000413743],> 150 µM
2,O=C1C(Br)=CC([N+](=O)[O-])=C/C1=C\NNC(=O)C12CC3CCC(CC(C3)C1)C2 [SMR000414723],> 150 µM
3,Cc1ccc(O)c(C2CC(c3ccc(Cl)cc3)N=N2)c1 (centres undefined) [SMR000414826],> 150 µM
4,CC1CC(C)(C)N2C(=O)/C(=N\NC(N)=S)c3cccc1c32 (centres undefined) [SMR000414933],> 150 µM
5,CC1=CC(C)(C)N2C(=O)/C(=N\N)c3c(C)c(C)cc1c32 [SMR000414935],16.3 µM
6,CCCCCCC(=O)NNC=C1C(=O)NC(=S)N(C(C)CC)C1=O (centres undefined) [SMR000439319],> 150 µM
7,COc1cccc(C(=O)Oc2ccc(CN=Nc3ccc(C(=O)O)cc3)cc2OC)c1 [SMR000502791],> 150 µM
8,Cc1cc(C)c2c(c1)C(=NNc1ccc(C(=O)O)cc1)C(O)=N2 [SMR000592331],> 150 µM
9,O=C1C(=O)N(Cc2ccco2)C(c2cccc(Cl)c2)C1C(=O)c1ccco1 (centres undefined) [SMR000665558],> 150 µM
10,O=C(CSc1ccc(Cl)cc1)Nc1cc(=O)n(-c2ccccc2)[nH]1 [SMR000672521],9.33 µM
11,CNC(=O)c1c(NC(=O)c2ccc(-n3c(O)ccc3O)cc2)sc2c1CCC(C)C2 (centres undefined) [SMR000806319],> 150 µM
12,CSc1cccc(-c2nnc(NC(=O)c3cccc(-n4c(O)ccc4O)c3)o2)c1 [SMR000811880],> 150 µM
13,"CC(=NNC(=N)Sc1cc(O)n(-c2ccc(Br)cc2)c1O)c1cccs1 [[1-(4-bromophenyl)-2,5-bis(oxidanylidene)pyrrolidin-3-yl] N''-(1-thiophen-2-ylethylideneamino)carbamimidothioate]",9.08 µM
14,"CCN1C(=O)C(C=NN=Cc2ccccc2)c2ccc(C3=NNC(=O)CC3)cc21 (centres undefined) [benzaldehyde {[1-ethyl-2-oxo-6-(6-oxo-1,4,5,6-tetrahydro-3-pyridazinyl)-1,2-dihydro-3H-indol-3-ylidene]methyl}hydrazone]",> 150 µM
15,CC(C)COC(=O)c1cccc2c1-c1ccccc1C2N=O (centres undefined) [isobutyl 9-(hydroxyimino)-9H-fluorene-4-carboxylate],50 µM
16,"COC(=O)c1sc(N2C(=O)C(=O)C(C(=O)c3ccc(C)o3)C2c2ccc([N+](=O)[O-])cc2)nc1C (centres undefined) [methyl 2-[4-hydroxy-3-(5-methylfuran-2-carbonyl)-2-(4-nitrophenyl)-5-oxo-2H-pyrrol-1-yl]-4-methyl-1,3-thiazole-5-carboxylate]",> 150 µM
17,"C[N+](C)(C)c1ccc(CN=Nc2nc(Cl)c(C#N)c(Cl)c2Cl)cc1 [trimethyl-[4-[[(3,4,6-trichloro-5-cyanopyridin-2-yl)hydrazinylidene]methyl]phenyl]azanium;iodide]",> 150 µM
